From article doi:10.1101/2023.08.23.554426v1 (biorxiv, 2023) come the findings set out here.

Holding throughout (conditions): read-out: K1; phosphate buffer pH 7.6, 25 °C; stronger site of two-site fit
In assay [1] the target is PfRKIP (Plasmodium falciparum, UniProt Q7KQK1, P80L).
For a further assay, the target named is HsRKIP (Homo sapiens, UniProt P30086). As to the kind of experiment: ITC, sequential binding model. For orientation: Isothermal titration calorimetry measures the heat released or taken up as one component is titrated into another.
In assay [2] the target is T1, PfRKIP (Plasmodium falciparum, UniProt Q7KQK1).
T1 sequence (Q7KQK1 1-190): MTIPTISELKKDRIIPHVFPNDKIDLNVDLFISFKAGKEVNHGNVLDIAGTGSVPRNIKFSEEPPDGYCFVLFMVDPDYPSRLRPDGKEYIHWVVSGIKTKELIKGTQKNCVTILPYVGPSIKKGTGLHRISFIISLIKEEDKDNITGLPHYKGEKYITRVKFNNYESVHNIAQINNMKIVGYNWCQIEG
As to the kind of experiment: ITC, sequential binding model.

Assay [3] deals with PfRKIP (Plasmodium falciparum, UniProt Q7KQK1, S96A).
Assay [4] concerns the target PfRKIP (Plasmodium falciparum, UniProt Q7KQK1, H92A).

Chain of HsRKIP (P30086 whole entry): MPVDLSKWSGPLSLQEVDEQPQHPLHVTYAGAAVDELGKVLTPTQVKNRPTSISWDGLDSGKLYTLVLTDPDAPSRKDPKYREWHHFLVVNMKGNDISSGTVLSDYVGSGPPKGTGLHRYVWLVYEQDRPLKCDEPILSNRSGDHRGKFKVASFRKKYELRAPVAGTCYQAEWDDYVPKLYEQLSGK

Regarding `CCCCCCCCCCCCCCCC(=O)OC[C@H](COP(=O)(O)O[C@@H]1[C@H](O)[C@H](OP(=O)(O)O)[C@@H](O)[C@H](O)[C@H]1O)OC(=O)CCCCCCCCCCCCCCC` [PtdIns(3)P], the Kd at PfRKIP [1] is 109 µM; at HsRKIP, 43.5 µM; at PfRKIP [2], 11.5 µM; on PfRKIP [3], 15.6 µM; at PfRKIP [4], 15.6 µM.
